Each compound was assayed against T1, HIV-1 integrase multimerization (Human immunodeficiency virus type 1 group M subtype B, UniProt P12497) (assay: HTRF assay validating activators of HIV-1 integrase multimerization (in vitro binding assay)). Settings: His-tagged and FLAG-tagged integrase 20 nM each; time-resolved FRET; 8-point 1:3 dilution from 53.7 μM, triplicate; active when EC50 < 5 µM.
T1 construct: His-tagged and FLAG-tagged integrase (donated by professor Mamuka Kvaratskhelia); gift of Prof; Mamuka Kvaratskhelia (University of Colorado Denver Anschutz Medical Campus)
Assay type: biochemical
Procedure: An assay was carried out as previously described to experimentally validate the compounds [45] identified by LBS as activators of HIV-1 integrase multimerization. Briefly, His-tagged and FLAG-tagged integrase (donated by professor Mamuka Kvaratskhelia at university of Colorado Denver Anschutz Medical Campus) were separately prepared with final concentration of 20 nM. An antibody mixture was prepared with 1.25 μg/mL of anti-6xHis-XL665 antibody (Cisbio) and 58 ng/mL of anti-FLAG-EuCryptate antibody (Cisbio), respectively, in Tris-HCl buffer. His-tagged and FLAG-tagged Integrase were mixed in 25 mM Tris-HCl (pH 7.4) buffer containing 150 mM NaCl, 2 mM MgCl2, 0.1% Nonidet P40, and 1 mg/mL BSA. 35 μL of integrase mixture was added to each well. Next, 270 nL of compounds (each in triplicate using 8-point 1:3 dilution series starting at a maximum nominal test concentration of 53.7 μM) were distributed to appropriate wells. Dimethyl sulfoxide was used as low-control, and BIB-II (donated by professor Mamuka Kvaratskhelia at university of Colorado Denver Anschutz Medical Campus) was used as high-control reference compound. After 3 h of incubation, 15 μL of antibody mixture was added to the plates. After incubation at room temperature for 2.5 h, the time-resolved fluorescence energy transfer signal was measured by the microplate reader (SpectraMax M5, Molecular Devices, LLC., San Jose, CA, USA) by exciting the plates (384 well, Corning) at 340 nm and monitoring well fluorescence at 618 nm and 671 nm with the microplate reader. All the test compounds were bought from ChemDiv (San Diego, CA, USA).

SMILES	EC50
COc1cccc(/C=N/Nc2nc3c(=O)[nH]c(N)nc3n2C2OC(CO)C(O)C2O)c1O (stereo not shown) [Pubchem CID 135427812]	0.71 µM
O=C(NN=Cc1ccccc1F)c1cc(O)c(O)c(O)c1 [compound 3656702]	4.88 µM
O=C(NNC1OC(CO)C(O)C(O)C1O)c1ccc(O)cc1 (stereo not shown) [compound 4137880]	1.26 µM
O=c1cc(-c2ccc(O)c(O)c2)oc2cc(OC3OC(CO)C(O)C(O)C3O)cc(O)c12 (stereo not shown) [compound 5291488]	3.62 µM
O=c1c(OC2OC(CO)C(O)C(O)C2O)c(-c2ccc(O)c(O)c2)oc2cc(O)cc(O)c12 (stereo not shown) [compound 5378597]	1.36 µM
O=c1c2cc(O)c(O)cc2oc2cc(O)c(OC3OC(CO)C(O)C(O)C3O)c(O)c12 (stereo not shown) [compound 46397461]	1.26 µM
COc1cccc(C=NNc2nc3c(=O)[nH]c(N)nc3n2C2OC(CO)C(O)C2O)c1O (stereo not shown) [compound 135427812]	0.71 µM

From paper PMC6651094, “A Ligand-Based Virtual Screening Method Using Direct Quantification of Generalization Ability” (Molecules, 2019)
